In PubChem BioAssay AID2060627 (Molecular Pharmacology Branch, DTP, NCI, 2025):
Several values for one entry are separate records, joined by “and”; a condition that tells them apart may be missing. Identical values can stand only once.

System: 156681-154-R-J1-PDC complex spheroid viability
Assay: Anticancer human tumor 156681-154-R-J1-PDC patient-derived melanoma cell line growth inhibition [CLK]
Conditions: for viability, T/C: stronger effect = lower value
Excerpt: A high-throughput screen of multi-cell type tumor spheroids was designed to identify active combinations of […] and targeted small molecules. Complex spheroids include a stromal component modeled by human endothelial cells (HUVEC) and fibroblasts modeled by human mesenchymal stem cells (MSCs). The concentration ranges selected for each drug and investigational agent were based upon clinically achievable concentrations if the clinical Cmax of the agent was known.
Compounds. The drugs and investigational agents: cirtuvivint (SM08502; NSC835563), CC-671 (NSC850746), vemurafenib (NSC761431), tapotoclax (NSC804041), sotorasib (NSC818433), adagrasib (NSC831453), MRTX-1133 (NSC836407), BAY2416964 (NSC825713), copanlisib (NSC816437), inavolisib (NSC800729), abemaciclib (NSC768073), osimertinib (NSC779217), entinostat (NSC756642), eltanexor (KPT-8602, NSC794443), venetoclax (NSC766270), ceralasertib (NSC777638), bortezomib (NSC756655), olaparib (NSC753686), talazoparib (NSC767125), alisertib (NSC759677), peposertib (NSC802822), gemcitabine (NSC613327), 5-fluorouracil (NSC19893), SN-38 (NSC673596), oxaliplatin (NSC266046), paclitaxel (NSC125973), and doxorubicin (NSC123127), were obtained from the National Cancer Institute (NCI) Developmental Therapeutics Program Chemical Repository. The FDA-approved anticancer drug set is available from the Developmental Therapeutics Program at https://dtp.cancer.gov/organization/dscb/obtaining/available plates.htm. […] The stock solutions were prepared in dimethyl sulfoxide (DMSO, Sigma-Aldrich, St. Louis, MO, cat. D2650), except for the platinum complexes which were prepared in saline (Quality Biological, Gaithersburg, MD, cat. 114-055-101), at 800-fold the tested concentration and stored at -70 degrees C prior to their use. All drugs and investigational agents were tested over a range starting from a high concentration at or near the clinical Cmax and decreasing in half-log increments. If the clinical Cmax for an agent had not been determined, the highest concentration tested was 10 microM.
Cell Culture. All cells were maintained in an incubator at 37 degrees C and 5% CO2 with 95% humidity. The PDC lines were cultured according to standard operating procedures established by the NCI PDMR. Briefly, all PDCs were thawed and cultured in Matrigel-coated flasks prepared with a working solution of 1X Ham's F-12 nutrient mix, without supplementation (Invitrogen, Waltham, MA, cat. 11765054), 100 U/mL penicillin-streptomycin (Invitrogen, cat. 15140122), and 2.5% Matrigel (Corning Inc., Corning, NY, cat. 354248) for the first three passages. The 947758-054-R-J2-PDC line was cultured in 6B/Colon 1A media, which includes advanced DMEM/F-12 (Thermo Fisher Scientific, cat. 12634028), 10 mM HEPES (Thermo Fisher Scientific, cat. 15630080), 1X GlutaMAX supplement (Thermo Fisher Scientific, cat. 35050061), 0.1 mg/mL primocin (InvivoGen, cat. ant-pm-2), 10% defined fetal bovine serum, heat inactivated (HyClone Laboratories Inc., cat. SH30070.03HI), 1.25 mM N-Acetyl-L-cysteine (Sigma-Aldrich, cat. A9165), 10 mM nicotinamide (Sigma-Aldrich, cat. N0636), 1X B-27 supplement (Thermo Fisher Scientific, cat. 17504044), 1X N-2 supplement (Thermo Fisher Scientific, cat. 17502048), and 10 microM Y-27632 dihydrochloride (Tocris Bioscience, cat. 1254). The 876862-298-R-J1-PDC was cultured in 6E media, which includes all 6B/Colon 1A media components plus 50% L-WRN conditioned media (ATCC, cat. CRL-3276), 50 ng/mL recombinant human EGF recombinant protein (hEGF; Thermo Fisher Scientific, cat. PHG0311), 10 ng/mL recombinant human fibroblast growth factor 10 (hGFG-10; PeproTech, cat. 100-26), 1 ng/mL recombinant human fibroblast growth factor 2 (hFGF-2; PeproTech, cat. 100-18B), and 1 µM prostaglandin E2 (PGE2; Tocris, cat. 2296). The 227483-062-R1-J1-PDC line was cultured in Panc media, containing all 6E components except hFGF-2, with the addition of 500 nM SB-431542 (Selleckchem, cat. S1067) and 10 nM gastrin (Tocris, cat. 3006). […]
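Also: spheroids exposed to the agents for seven days.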
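For viability, T/C in this document: 100% = DMSO vehicle control viability.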

Row | IC50 (curve of compound) | SMILES | viability, T/C (compound 0.0316 µM) | viability, T/C (compound 0.1 µM) | viability, T/C (compound 0.316 µM) | viability, T/C (compound 1 µM) | viability, T/C (compound 3.16 µM) | viability, T/C (compound 10 µM) | other results
1 | > 10000 nM | C#Cc1c(F)ccc2cc(O)cc(-c3ncc4c(N5CC6CCC(C5)N6)nc(OCC56CCCN5CC(F)C6)nc4c3F)c12 (configuration not stated) | 110% and 91.8% | 86.9% and 94% | 79.3% and 89.4% | 89.2% and 83.5% | 109% and 96.9% | 99.2% and 101% | –
2 | 1100 nM and 2120 nM | C=C(F)C(=O)N1CCN(c2nc(OCC3CCCN3C)nc3c2CCN(c2cccc4cccc(Cl)c24)C3)CC1CC#N (configuration not stated) | 62.4% and 97.8% | 68.8% and 78% | 85% and 95.9% | 51.9% and 90.4% | 11.4% and 28.5% | 1.93% and 0.2% | –
3 | > 10000 nM | C=CC(=O)N1CCN(c2nc(=O)n(-c3c(C)ccnc3C(C)C)c3nc(-c4c(O)cccc4F)c(F)cc23)C(C)C1 (configuration not stated) | 99.5% and 84.9% | 91.5% and 76.2% | 101% and 112% | 89.7% and 114% | 116% and 106% | 80.5% and 108% | –
4 | > 300 nM | C=CC(=O)Nc1cc(Nc2nccc(-c3cn(C)c4ccccc34)n2)c(OC)cc1N(C)CCN(C)C | – | – | – | – | – | – | viability, T/C (compound 0.000949 µM): 98.3% and 114%; viability, T/C (compound 0.003 µM): 88.5% and 85.6%; viability, T/C (compound 0.00949 µM): 96.7% and 88.3%; viability, T/C (compound 0.03 µM): 101% and 96.3%; viability, T/C (compound 0.0949 µM): 93.5% and 100%; viability, T/C (compound 0.3 µM): 80.8% and 90%
5 | < 0.949 nM | CC(C)CC(NC(=O)C(Cc1ccccc1)NC(=O)c1cnccn1)B(O)O (configuration not stated) | – | – | – | – | – | – | viability, T/C (compound 0.000949 µM): 26.8% and 12.1%; viability, T/C (compound 0.003 µM): 0.63% and 0.17%; viability, T/C (compound 0.00949 µM): 0.23% and 0.71%; viability, T/C (compound 0.03 µM): 0.23% and 2.41%; viability, T/C (compound 0.0949 µM): 0.31% and 0.16%; viability, T/C (compound 0.3 µM): 2.09% and 0.42%
6 | > 10000 nM | CC(CO)NC(=O)c1cc(-c2ccc(Cl)cc2)nn(-c2cnn(C)c2)c1=O (configuration not stated) | 97.5% and 93.1% | 73.8% and 82.1% | 100% and 94.2% | 94.3% and 99.3% | 87.3% and 77.8% | 51.8% and 58.1% | –
7 | 460 nM and 305 nM | CC(Nc1ccc2c(c1)OCCn1cc(N3C(=O)OCC3C(F)F)nc1-2)C(N)=O (configuration not stated) | 67.3% and 70.1% | 65.7% and 55.4% | 53.8% and 52.7% | 39.9% and 37.6% | 32.3% and 33.9% | 23.5% and 19.5% | –
8 | 4390 nM and 4780 nM | CC1(C)CCC(CN2CCN(c3ccc(C(=O)NS(=O)(=O)c4ccc(NCC5CCOCC5)c([N+](=O)[O-])c4)c(Oc4cnc5[nH]ccc5c4)c3)CC2)=C(c2ccc(Cl)cc2)C1 | 112% and 88.5% | 81.5% and 88.9% | 88.7% and 90.4% | 101% and 94.3% | 68.2% and 77.1% | 4.6% and 1.6% | –
9 | 1440 nM and 956 nM | CC1COCCN1c1cc(C2(S(C)(=N)=O)CC2)nc(-c2ccnc3[nH]ccc23)n1 (configuration not stated) | 78.6% and 84.9% | 88.3% and 97.8% | 85.9% and 86.3% | 61.9% and 48% | 24% and 20.1% | 15.4% and 13.1% | –
10 | 5500 nM and 4990 nM | CCCS(=O)(=O)Nc1ccc(F)c(C(=O)c2c[nH]c3ncc(-c4ccc(Cl)cc4)cc23)c1F | 90.6% and 79.6% | 77.4% and 59.3% | 99.6% and 96.6% | 92.4% and 73.8% | 85.8% and 83.2% | 11.3% and 6.41% | –
11 | > 1000 nM | CCN1CCN(Cc2ccc(Nc3ncc(F)c(-c4cc(F)c5nc(C)n(C(C)C)c5c4)n3)nc2)CC1 | 83.9% and 84.2% | 69.7% and 84.1% | 66.8% and 75.8% | 50.5% and 56.2% | – | – | viability, T/C (compound 0.00316 µM): 82.6% and 81.5%; viability, T/C (compound 0.01 µM): 82.6% and 92.4%
12 | < 3.16 nM | CCc1c2c(nc3ccc(O)cc13)-c1cc3c(c(=O)n1C2)COC(=O)[C@]3(O)CC | 15.6% and 16.5% | 21.3% and 17.4% | 16.8% and 17.7% | 4.59% and 4.21% | – | – | viability, T/C (compound 0.00316 µM): 38.3% and 25.9%; viability, T/C (compound 0.01 µM): 16.9% and 13.7%
13 | – | CN1CCN(c2cc(C(=O)Nc3cc4cc(-c5cnn(C)c5)ccc4cn3)ccn2)CC1 | 102% [middle of 12 runs] | 97.7% [middle of 12 runs] | 24.3% [middle of 12 runs] | 1.19% [middle of 12 runs] | 0.58% [middle of 11 runs] | 0.34% [middle of 10 runs] | IC50 (compound alone, run of 08/14/2023): 212 nM [middle of 9 runs]
14 | – | CNC(=O)c1ccc(Nc2nc(OC3CCCC3)c3c(-c4ccc5nc(C)oc5c4)c[nH]c3n2)c(OC)c1 | 105% [middle of 12 runs] | 63% [middle of 12 runs] | 54.3% [middle of 12 runs] | 36.4% [middle of 11 runs] | 42.1% [middle of 12 runs] | – | –
15 | 1330 nM and 861 nM | COC1C=CCC(C)C(C)S(=O)(=O)NC(=O)c2ccc3c(c2)N(CC2CCC21)CC1(CCCc2cc(Cl)ccc21)CO3 (configuration not stated) | 86.6% and 107% | 85.4% and 73.3% | 86.8% and 70.1% | 61.2% and 61.9% | 14.6% and 10.7% | 1.35% and 1.31% | –
16 | 27 nM and 20.3 nM | COc1c(OCCCN2CCOCC2)ccc2c3n(c(=NC(=O)c4cnc(N)nc4)nc12)CCN3 | 45.8% and 39.1% | 19.1% and 13.5% | 3.62% and 2.73% | 1.16% and 0.46% | – | – | viability, T/C (compound 0.00316 µM): 73.2% and 68.2%; viability, T/C (compound 0.01 µM): 69.9% and 67.5%
17 | > 100 nM | Cn1ncnc1[C@H]1c2n[nH]c(=O)c3cc(F)cc(c23)N[C@@H]1c1ccc(F)cc1 | 60.7% and 65.9% | 57% and 63.1% | – | – | – | – | viability, T/C (compound 0.000316 µM): 87.6% and 89%; viability, T/C (compound 0.001 µM): 88.1% and 94.1%; viability, T/C (compound 0.00316 µM): 91.8% and 78.8%; viability, T/C (compound 0.01 µM): 80.4% and 83%
18 | 73.9 nM and 34.7 nM | NC(=O)C(=Cn1cnc(-c2cc(C(F)(F)F)cc(C(F)(F)F)c2)n1)c1cncnc1 | – | – | – | – | – | – | viability, T/C (compound 0.00949 µM): 79.6% and 73.7%; viability, T/C (compound 0.03 µM): 67.2% and 49.7%; viability, T/C (compound 0.0949 µM): 46.6% and 36.5%; viability, T/C (compound 0.3 µM): 14.8% and 11.8%; viability, T/C (compound 0.949 µM): 6.97% and 7.35%; viability, T/C (compound 3 µM): 4.72% and 4.92%
19 | 674 nM and 305 nM | Nc1ccccc1NC(=O)c1ccc(CNC(=O)OCc2cccnc2)cc1 | 105% and 91.2% | 98.8% and 108% | 71.4% and 47.5% | 40.7% and 27% | 6.65% and 4.95% | 0.46% and 0.13% | –
20 | < 31.6 nM | Nc1ccn(C2OC(CO)C(O)C2(F)F)c(=O)n1 (configuration not stated) | 14.4% and 13.7% | 13.7% and 12.6% | 15.7% and 16.1% | 12.8% and 13.2% | 16.9% and 14.6% | 13.1% and 14.5% | –
21 | > 10000 nM | O=C(c1cc(Cc2n[nH]c(=O)c3ccccc23)ccc1F)N1CCN(C(=O)C2CC2)CC1 | 92.3% and 97.7% | 72.3% and 78.8% | 72% and 85.3% | 83.4% and 78.3% | 72.3% and 90.1% | 56.2% and 57.6% | –
22 | 6800 nM and 7000 nM | O=c1[nH]cc(F)c(=O)[nH]1 | 72.7% and 87.1% | 85.4% and 88.9% | 84.8% and 79.8% | 91% and 90.6% | 81.6% and 80.6% | 34% and 35.9% | –
